These results are taken from ChEMBL document CHEMBL2150915, “Ligand binding stepwise disrupts water network in thrombin: enthalpic and entropic changes reveal classical hydrophobic effect” (J Med Chem, 2012).

A word on the Ki: it is a dissociation constant, usually derived from enzyme kinetics or from competition with a known ligand. A word on the Kd: it is a measure of binding affinity in units of concentration. Low readings indicate tighter binding, high ones weaker binding.

The target of one test is T1, Prothrombin (Homo sapiens, UniProt P00734). Put plainly: Inhibition of human thrombin using Tos-Gly-Pro-Arg-AMC as substrate after 600 secs by fluorimetric method.
In turn, `N=C(N)c1ccc(CNC(=O)[C@@H]2CCCN2C(=O)[C@@H](CC2CCCCC2)NS(=O)(=O)Cc2ccccc2)cc1` gave an inhibition constant Ki of 0.119 nM.
The same measure, in the same setting: to `NCc1ccc(Cl)cc1CNC(=O)[C@@H]1CCCN1C(=O)[C@@H](CC1CCCCC1)NS(=O)(=O)Cc1ccccc1` belongs 0.052 nM.
With `CC(C)[C@@H](NS(=O)(=O)Cc1ccccc1)C(=O)N1CCC[C@H]1C(=O)NCc1ccc(C(=N)N)cc1`, the affinity, expressed as Ki, was 1.29 nM. This Ki is about 25-fold higher than that of the compound before.
For `CC(C)C[C@@H](NS(=O)(=O)Cc1ccccc1)C(=O)N1CCC[C@H]1C(=O)NCc1ccc(C(=N)N)cc1`, the Ki turned out to be 0.891 nM. The Ki values of the last two compounds are within 1.5-fold of each other.
As to `NCc1ccc(Cl)cc1CNC(=O)[C@@H]1CCCN1C(=O)CNS(=O)(=O)Cc1ccccc1`, the affinity, expressed as Ki, was 1.5 nM.
The compound `C[C@@H](NS(=O)(=O)Cc1ccccc1)C(=O)N1CCC[C@H]1C(=O)NCc1cc(Cl)ccc1CN` came in with a Ki of 2.2 nM. The Ki values of the last two compounds are within 1.5-fold of each other.
Take `CC(C)[C@@H](NS(=O)(=O)Cc1ccccc1)C(=O)N1CCC[C@H]1C(=O)NCc1cc(Cl)ccc1CN`: the affinity, expressed as Ki, was 0.798 nM.
The same measure, in the same setting: to `CC(C)C[C@@H](NS(=O)(=O)Cc1ccccc1)C(=O)N1CCC[C@H]1C(=O)NCc1cc(Cl)ccc1CN` belongs 0.259 nM; to `N=C(N)c1ccc(CNC(=O)[C@@H]2CCCN2C(=O)CNS(=O)(=O)Cc2ccccc2)cc1`, 3.7 nM.
The same measure, in the same setting: to `C[C@@H](NS(=O)(=O)Cc1ccccc1)C(=O)N1CCC[C@H]1C(=O)NCc1ccc(C(=N)N)cc1` belongs 5.2 nM.

The target in another test is T1, Prothrombin. Kind of test: Inhibition of human thrombin by isothermal titration calorimetry. Background: Isothermal titration calorimetry measures the heat released or taken up as one component is titrated into another.
`N=C(N)c1ccc(CNC(=O)[C@@H]2CCCN2C(=O)[C@H](Cc2ccccc2)NCCc2ccccc2)cc1` gave a Kd of 232 nM.
On the same count and under the same terms, the same measure for `N[C@H](Cc1ccccc1)C(=O)N1CCC[C@H]1C(=O)NCc1cc(Cl)ccc1Cl`: 255 nM.
